According to ChEMBL document CHEMBL3621169, “Synthesis of tetrazole compounds as a novel type of potential antimicrobial agents and their synergistic effects with clinical drugs and interactions with calf thymus DNA” (Medchemcomm, 2015):
Values after ≈ are worked out from the molar mass of the structure shown. Active and inactive are the calls of the source. No cut-off for these calls is given here.

Key:
Staphylococcus aureus [1] = test: Antibacterial activity against methicillin-resistant Staphylococcus aureus N315 by micro dilution checkerboard method in the presence of norfloxacin; assay type: functional
Bacillus spizizenii [2] = test: Antibacterial activity against Bacillus subtilis ATCC 6633 after 24 hrs by micro broth dilution method; assay type: functional; settings: ATCC 6633, 24 h
Cyberlindnera jadinii [3] = test: Antifungal activity against Candida utilis ATCC 9950 by micro dilution checkerboard method in the presence of fluconazole; assay type: functional
Micrococcus luteus [4] = test: Antibacterial activity against Micrococcus luteus ATCC 4698 after 24 hrs by micro broth dilution method; assay type: functional; settings: ATCC 4698, 24 h
[5] = Ionization constant, pKa of the compound by UV spectroscopy; assay type: physicochemical
Micrococcus luteus [6] = test: Antibacterial activity against Micrococcus luteus ATCC 4698 by micro dilution checkerboard method in the presence of chloromycin; assay type: functional
Bacillus spizizenii [7] = test: Antibacterial activity against Bacillus subtilis ATCC 6633 by micro dilution checkerboard method in the presence of chloromycin; assay type: functional
Micrococcus luteus [8] = test: Antibacterial activity against Micrococcus luteus ATCC 4698 by micro dilution checkerboard method in the presence of norfloxacin; assay type: functional
Bacillus spizizenii [9] = test: Antibacterial activity against Bacillus subtilis ATCC 6633 by micro dilution checkerboard method in the presence of norfloxacin; assay type: functional
Bacillus sp. [10] = test: Antibacterial activity against Bacillus proteus ATCC 13315 by micro dilution checkerboard method in the presence of norfloxacin; assay type: functional
Aspergillus flavus [11] = test: Antifungal activity against Aspergillus flavus by micro dilution checkerboard method in the presence of fluconazole; assay type: functional
Candida albicans [12] = test: Antifungal activity against Candida albicans ATCC 90029 after 24 hrs by micro broth dilution method; assay type: functional; settings: ATCC 90029, 24 h
Pseudomonas aeruginosa [13] = test: Antibacterial activity against Pseudomonas aeruginosa ATCC 27853 by micro dilution checkerboard method in the presence of norfloxacin; assay type: functional
Bacillus sp. [14] = test: Antibacterial activity against Bacillus proteus ATCC 13315 after 24 hrs by micro broth dilution method; assay type: functional; settings: Bacillus sp. (in: firmicutes), ATCC 13315, 24 h
Staphylococcus aureus [15] = test: Antibacterial activity against Staphylococcus aureus ATCC 25923 by micro dilution checkerboard method in the presence of chloromycin; assay type: functional
Pseudomonas aeruginosa [16] = test: Antibacterial activity against Pseudomonas aeruginosa ATCC 27853 after 24 hrs by micro broth dilution method; assay type: functional; settings: ATCC 27853, 24 h
Staphylococcus aureus [17] = test: Antibacterial activity against Staphylococcus aureus ATCC 25923 after 24 hrs by micro broth dilution method; assay type: functional; settings: ATCC 25923, 24 h
Staphylococcus aureus [18] = test: Antibacterial activity against methicillin-resistant Staphylococcus aureus N315 by micro dilution checkerboard method in the presence of chloromycin; assay type: functional
Aspergillus flavus [19] = test: Antifungal activity against Aspergillus flavus after 24 hrs by micro broth dilution method; assay type: functional
Calf thymus DNA [20] = test: Binding affinity to calf thymus DNA by UV-visible spectroscopy; assay type: nucleic-acid assay; settings: Bos taurus
Escherichia coli [21] = test: Antibacterial activity against Escherichia coli DH52 after 24 hrs by micro broth dilution method; assay type: functional; settings: DH52, 24 h
Bacillus sp. [22] = test: Antibacterial activity against Bacillus proteus ATCC 13315 by micro dilution checkerboard method in the presence of chloromycin; assay type: functional
Candida [23] = test: Antifungal activity against Candida mycoderma after 24 hrs by micro broth dilution method; assay type: functional
Shigella dysenteriae [24] = test: Antibacterial activity against Shigella dysenteriae ATCC 51252 by micro dilution checkerboard method in the presence of chloromycin; assay type: functional
Escherichia coli [25] = test: Antibacterial activity against Escherichia coli DH52 by micro dilution checkerboard method in the presence of chloromycin; assay type: functional
Pseudomonas aeruginosa [26] = test: Antibacterial activity against Pseudomonas aeruginosa ATCC 27853 by micro dilution checkerboard method in the presence of chloromycin; assay type: functional
Shigella dysenteriae [27] = test: Antibacterial activity against Shigella dysenteriae ATCC 51252 after 24 hrs by micro broth dilution method; assay type: functional; settings: ATCC 51252, 24 h
Staphylococcus aureus [28] = test: Antibacterial activity against Staphylococcus aureus ATCC 25923 by micro dilution checkerboard method in the presence of norfloxacin; assay type: functional
Cyberlindnera jadinii [29] = test: Antifungal activity against Candida utilis ATCC 9950 after 24 hrs by micro broth dilution method; assay type: functional; settings: Williopsis jadinii, ATCC 9950, 24 h
Escherichia coli [30] = test: Antibacterial activity against Escherichia coli DH52 by micro dilution checkerboard method in the presence of norfloxacin; assay type: functional
Staphylococcus aureus [31] = test: Antibacterial activity against methicillin-resistant Staphylococcus aureus N315 after 24 hrs by micro broth dilution method; assay type: functional; settings: N315, 24 h
[32] = n-octanol/water partition coefficient, log P of the compound at 25 deg C after 24 hrs by saturation shake flask based UV spectroscopy; assay type: physicochemical
Candida [33] = test: Antifungal activity against Candida mycoderma by micro dilution checkerboard method in the presence of fluconazole; assay type: functional
Calf thymus DNA [34] = test: Competitive binding affinity to calf thymus DNA by UV-visible spectroscopy in presence of neutral red; assay type: nucleic-acid assay; settings: Bos taurus
Candida albicans [35] = test: Antifungal activity against Candida albicans ATCC 90029 by micro dilution checkerboard method in the presence of fluconazole; assay type: functional
Shigella dysenteriae [36] = test: Antibacterial activity against Shigella dysenteriae ATCC 51252 by micro dilution checkerboard method in the presence of norfloxacin; assay type: functional
[37] = Bacillus sp. (in: firmicutes), ATCC 13315
[38] = Pseudomonas aeruginosa, ATCC 27853
[39] = Staphylococcus aureus, ATCC 25923

With `Clc1ccccc1CN(Cc1nnn[nH]1)c1ccccc1` as the compound, how does the “fractional inhibitory concentration index (FICI)” value (Staphylococcus aureus [1]) read?
Its value is 0.75.

And the MIC (Staphylococcus aureus [1]; Staphylococcus aureus, N315)?
The MIC was 8 µg/mL.

And the MIC (Bacillus spizizenii [2])?
Its MIC is 16 µg/mL (≈ 53.4 µM).

What about the “fractional inhibitory concentration index (FICI)” value (Cyberlindnera jadinii [3]) of the same compound?
The value was 0.5.

And the MIC (Cyberlindnera jadinii [3]; Williopsis jadinii, ATCC 9950)?
Its MIC is 4 µg/mL.

What about the MIC (Micrococcus luteus [4]) of the same compound?
Its MIC is 32 µg/mL (≈ 107 µM).

And the pKa [5]?
Its pKa is 4.34.

And the “fractional inhibitory concentration index (FICI)” value (Micrococcus luteus [6])?
The value was 0.5.

And the MIC (Micrococcus luteus [6]; Micrococcus luteus, ATCC 4698)?
The MIC was 8 µg/mL.

What about the “fractional inhibitory concentration index (FICI)” value (Bacillus spizizenii [7]) of the same compound?
The value was 0.375.

And the MIC (Bacillus spizizenii [7]; Bacillus spizizenii, ATCC 6633)?
Its MIC is 16 µg/mL.

What about the “fractional inhibitory concentration index (FICI)” value (Micrococcus luteus [8]) of the same compound?
Its value is 0.75.

And the MIC (Micrococcus luteus [8]; Micrococcus luteus, ATCC 4698)?
Its MIC is 8 µg/mL.

What about the “fractional inhibitory concentration index (FICI)” value (Bacillus spizizenii [9]) of the same compound?
The value was 0.625.

What about the MIC (Bacillus spizizenii [9]; Bacillus spizizenii, ATCC 6633) of the same compound?
Its MIC is 8 µg/mL.

And the “fractional inhibitory concentration index (FICI)” value (Bacillus sp. [10])?
Its value is 0.5.

What about the MIC (Bacillus sp. [10]; [37]) of the same compound?
The MIC was 16 µg/mL.

What about the “fractional inhibitory concentration index (FICI)” value (Aspergillus flavus [11]) of the same compound?
The value was 0.5.

What about the MIC (Aspergillus flavus [11]; Aspergillus flavus) of the same compound?
Its MIC is 4 µg/mL.

What about the MIC (Candida albicans [12]) of the same compound?
Its MIC is 8 µg/mL (≈ 26.7 µM).

And the “fractional inhibitory concentration index (FICI)” value (Pseudomonas aeruginosa [13])?
The value was 0.75.

And the MIC (Pseudomonas aeruginosa [13]; [38])?
Its MIC is 16 µg/mL.

And the MIC (Bacillus sp. [14])?
Its MIC is 16 µg/mL (≈ 53.4 µM).

What about the “fractional inhibitory concentration index (FICI)” value (Staphylococcus aureus [15]) of the same compound?
Its value is 0.75.

And the MIC (Staphylococcus aureus [15]; [39])?
Its MIC is 16 µg/mL.

What about the MIC (Pseudomonas aeruginosa [16]) of the same compound?
The MIC was 16 µg/mL (≈ 53.4 µM).

And the MIC (Staphylococcus aureus [17])?
The MIC was 32 µg/mL (≈ 107 µM).

What about the “fractional inhibitory concentration index (FICI)” value (Staphylococcus aureus [18]) of the same compound?
The value was 0.5.

What about the MIC (Staphylococcus aureus [18]; Staphylococcus aureus, N315) of the same compound?
The MIC was 8 µg/mL.

And the MIC (Aspergillus flavus [19])?
Its MIC is 8 µg/mL (≈ 26.7 µM).

What about the Activity (Calf thymus DNA [20]) of the same compound?
The Activity was “Dose-dependent effect”.

And the K (Calf thymus DNA [20])?
The K was 4.16 ×10⁴ L/mol.

What about the MIC (Escherichia coli [21]) of the same compound?
Its MIC is 16 µg/mL (≈ 53.4 µM).

And the “fractional inhibitory concentration index (FICI)” value (Bacillus sp. [22])?
The value was 0.75.

And the MIC (Bacillus sp. [22]; [37])?
Its MIC is 32 µg/mL.

And the MIC (Candida [23])?
Its MIC is 4 µg/mL (≈ 13.3 µM).

And the “fractional inhibitory concentration index (FICI)” value (Shigella dysenteriae [24])?
Its value is 0.5.

What about the MIC (Shigella dysenteriae [24]; Shigella dysenteriae, ATCC 51252) of the same compound?
The MIC was 8 µg/mL.

And the “fractional inhibitory concentration index (FICI)” value (Escherichia coli [25])?
Its value is 0.75.

What about the MIC (Escherichia coli [25]; Escherichia coli, DH52) of the same compound?
The MIC was 16 µg/mL.

What about the “fractional inhibitory concentration index (FICI)” value (Pseudomonas aeruginosa [26]) of the same compound?
Its value is 0.5.

And the MIC (Pseudomonas aeruginosa [26]; [38])?
The MIC was 16 µg/mL.

And the MIC (Shigella dysenteriae [27])?
The MIC was 32 µg/mL (≈ 107 µM).

What about the “fractional inhibitory concentration index (FICI)” value (Staphylococcus aureus [28]) of the same compound?
Its value is 0.5.

What about the MIC (Staphylococcus aureus [28]; [39]) of the same compound?
Its MIC is 16 µg/mL.

What about the MIC (Cyberlindnera jadinii [29]) of the same compound?
Its MIC is 4 µg/mL (≈ 13.3 µM).

And the “fractional inhibitory concentration index (FICI)” value (Escherichia coli [30])?
The value was 0.625.

And the MIC (Escherichia coli [30]; Escherichia coli, DH52)?
Its MIC is 8 µg/mL.

And the MIC (Staphylococcus aureus [31])?
The MIC was 32 µg/mL (≈ 107 µM).

What about the logP at 24 h [32] of the same compound?
The logP at 24 h was 1.09.

And the “fractional inhibitory concentration index (FICI)” value (Candida [33])?
Its value is 0.5.

And the MIC (Candida [33]; Candida)?
Its MIC is 2 µg/mL.

What about the Activity (Calf thymus DNA [34]) of the same compound?
The Activity was “Active”.

What about the “fractional inhibitory concentration index (FICI)” value (Candida albicans [35]) of the same compound?
The value was 0.75.

What about the MIC (Candida albicans [35]; Candida albicans, ATCC 90029) of the same compound?
The MIC was 2 µg/mL.

And the MIC (Shigella dysenteriae [36])?
The MIC was 4 µg/mL.
